These results are taken from ChEMBL document CHEMBL1201862, “PubChem BioAssay data set” (2004).

Structures are written as SMILES.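 Results reflect a 48-hour exposure of cells in 96-well plates to compound at five concentrations. Here, GI50 denotes the concentration required for 50% inhibition of growth.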 The source made the active and inactive calls. No stated cut-off is given here; in the data, active = GI50 up to about 1.1 µM and inactive = higher. Some results are limits rather than exact numbers.

Some test systems named below: A549; CAKI-1; COLO 205; EKVX; HCC 2998; MCF7; MDA-MB-231; MDA-MB-435; MDA-N; NCI-H522; NCI/ADR-RES; OVCAR-4; OVCAR-5; OVCAR-8; PC-3; SF-268; SK-MEL-5; SR; CCRF-CEM.
What all share (assay): NCI-60 cell line screen, 48 h

For `C#CC(O)Cc1ccc(OC)c2occc12` (stereo unspecified), the GI50 in the experiment on A549 is > 100 µM (inactive); in the experiment on CAKI-1, > 100 µM (inactive); in the experiment on COLO 205 it was > 100 µM (inactive); with EKVX, 69.3 µM (inactive); in the experiment with HCC 2998 it was > 100 µM (inactive); in the experiment on MCF7 it was > 100 µM (inactive). Besides, the GI50 with MDA-MB-231, in the experiment on MDA-MB-435, in the experiment with MDA-N, in the experiment on NCI-H522, with NCI/ADR-RES and in the experiment with OVCAR-4 was > 100 µM (inactive) in each case. Moreover, the GI50 in the experiment with OVCAR-5, in the experiment with OVCAR-8, in the experiment on PC-3, with SF-268, in the experiment with SK-MEL-5 and in the experiment on SR was > 100 µM (inactive) in each case.

As for `O=C1/C(=C/c2ccc(Cl)cc2)Oc2ccccc21`, the GI50 was 18.7 µM (inactive) in the experiment with A549; 2.76 µM (inactive) in the experiment on CAKI-1; > 100 µM (inactive) in the experiment with CCRF-CEM; 47.1 µM (inactive) with COLO 205; 22.1 µM (inactive) with EKVX; > 100 µM (inactive) in the experiment with HCC 2998. Also, the GI50 is 30.2 µM (inactive) in the experiment on MCF7; > 100 µM (inactive) with MDA-MB-231; 79.3 µM (inactive) in the experiment on MDA-MB-435; 37.3 µM (inactive) with MDA-N; 11.7 µM (inactive) in the experiment on NCI-H522; > 10 µM (inactive) with NCI/ADR-RES. Further, the GI50 in the experiment on OVCAR-4 was 46.5 µM (inactive); with OVCAR-8 it was 29.9 µM (inactive); in the experiment with PC-3, > 10 µM (inactive); in the experiment on SF-268 it was 51.6 µM (inactive); in the experiment on SK-MEL-5, 20.4 µM (inactive); in the experiment on SR, 51.2 µM (inactive).

As to `O=C(O)Cc1cccc2c1OC(c1ccccc1)C(Cl)(C(=O)c1ccccc1)C2=O` (stereo unspecified), the GI50 in the experiment with A549 is 29.4 µM (inactive); with CAKI-1 it was 17.8 µM (inactive); in the experiment on CCRF-CEM, 3.21 µM (inactive); in the experiment on COLO 205 it was > 10 µM (inactive); with EKVX, 21.5 µM (inactive); with HCC 2998, 13.2 µM (inactive). The GI50 was 6.01 µM (inactive) in the experiment on MCF7; 18.7 µM (inactive) in the experiment with MDA-MB-231; 15.8 µM (inactive) in the experiment on MDA-MB-435; 14.4 µM (inactive) in the experiment on MDA-N; 14.2 µM (inactive) with NCI-H522; 22.2 µM (inactive) in the experiment with NCI/ADR-RES. The GI50 in the experiment on OVCAR-8 is 22.2 µM (inactive); in the experiment with PC-3, 11.4 µM (inactive); in the experiment with SF-268, 27.9 µM (inactive); in the experiment with SK-MEL-5, 15.3 µM (inactive); in the experiment on SR, 20.4 µM (inactive).

On to `CC1CN(c2cc3c(cc2F)c(=O)c(C(=O)O)cn3-c2ccc(F)cn2)CC(C)N1` (stereo unspecified), for which the GI50 in the experiment with A549, with CAKI-1, with CCRF-CEM, with COLO 205, in the experiment with EKVX and in the experiment on MCF7 was > 100 µM (inactive) in each case. For the same molecule, the GI50 with MDA-MB-231 is > 100 µM (inactive); in the experiment with MDA-MB-435, > 100 µM (inactive); in the experiment with MDA-N, > 100 µM (inactive); in the experiment on NCI-H522, 22.5 µM (inactive); with NCI/ADR-RES, > 100 µM (inactive); with OVCAR-4, > 100 µM (inactive). Moreover, the GI50 with OVCAR-5, in the experiment with OVCAR-8, with PC-3, in the experiment on SF-268 and in the experiment with SR was > 100 µM (inactive) each time.

Regarding `CC(=O)OC(Cc1c(O)c2c(C)cccc2oc1=O)C(C)(C)O` (stereo unspecified), the GI50 was > 100 µM (inactive) in the experiment on A549; > 100 µM (inactive) in the experiment on CAKI-1; 88.5 µM (inactive) in the experiment with CCRF-CEM; > 100 µM (inactive) in the experiment on COLO 205; > 100 µM (inactive) in the experiment on EKVX; > 100 µM (inactive) in the experiment on HCC 2998. Also, the GI50 with MCF7 was > 100 µM (inactive); with MDA-MB-231, > 100 µM (inactive); in the experiment on MDA-MB-435, > 100 µM (inactive); in the experiment on MDA-N, > 100 µM (inactive); in the experiment with NCI-H522 it was > 100 µM (inactive); with NCI/ADR-RES it was 92.3 µM (inactive). Besides, the GI50 in the experiment with OVCAR-5 is > 100 µM (inactive); with OVCAR-8, > 100 µM (inactive); in the experiment with PC-3 it was 51.4 µM (inactive); with SF-268, 91.4 µM (inactive); in the experiment on SK-MEL-5 it was > 100 µM (inactive); in the experiment on SR it was 55.1 µM (inactive).

Take `C=C(C)COC1CCCCO1` (stereo unspecified): the GI50 with A549, in the experiment with CAKI-1, in the experiment on CCRF-CEM, with COLO 205, in the experiment on EKVX and with HCC 2998 was > 100 µM (inactive) throughout. The GI50 with MCF7, in the experiment with MDA-MB-231, in the experiment on MDA-MB-435, in the experiment on MDA-N, with NCI-H522 and in the experiment with NCI/ADR-RES was > 100 µM (inactive) each time. The GI50 in the experiment on OVCAR-5 was > 100 µM (inactive); in the experiment with OVCAR-8, > 100 µM (inactive); with PC-3, > 100 µM (inactive); in the experiment with SF-268, > 100 µM (inactive); with SK-MEL-5 it was > 100 µM (inactive); in the experiment on SR it was > 10 µM (inactive).

`CC(=O)C(C(=N)C#N)C(=O)Nc1ccccc1` (stereo unspecified): the GI50 with A549, in the experiment on CAKI-1, in the experiment on CCRF-CEM, in the experiment on COLO 205, in the experiment on EKVX and in the experiment with MCF7 was > 100 µM (inactive) in each case. Besides, the GI50 in the experiment on MDA-MB-231, in the experiment on MDA-MB-435, with MDA-N, in the experiment with NCI-H522, with NCI/ADR-RES and with OVCAR-4 was > 100 µM (inactive) throughout. The GI50 in the experiment on OVCAR-5, in the experiment with OVCAR-8, in the experiment with PC-3, in the experiment on SF-268, with SK-MEL-5 and with SR was > 100 µM (inactive) throughout.

`C=C1C(=O)O[C@H]2C[C@@]3(COC(C)=O)C=COC=C(COC(=O)C(C)C)C3CC12` (stereo partly specified): the GI50 in the experiment on A549 is > 100 µM (inactive); in the experiment on CAKI-1, 65.2 µM (inactive); in the experiment on CCRF-CEM, 24 µM (inactive); in the experiment on COLO 205, 61.1 µM (inactive); in the experiment on EKVX it was > 100 µM (inactive); with HCC 2998, 51.4 µM (inactive). The GI50 in the experiment with MCF7 is 52.4 µM (inactive); with MDA-MB-231, 61.9 µM (inactive); in the experiment with MDA-MB-435, 73.5 µM (inactive); with MDA-N it was 45.7 µM (inactive); in the experiment with NCI-H522, 60 µM (inactive); in the experiment on NCI/ADR-RES it was > 100 µM (inactive). Moreover, the GI50 with OVCAR-5 is > 100 µM (inactive); in the experiment on OVCAR-8, 53.3 µM (inactive); in the experiment with PC-3, 35.3 µM (inactive); in the experiment with SF-268 it was > 10 µM (inactive); in the experiment with SK-MEL-5 it was > 100 µM (inactive); in the experiment with SR it was 25.9 µM (inactive).

Consider `O=[N+]([O-])c1ccc(C(O)(C#CCN2CCCC2)c2ccccc2)cc1` (stereo unspecified), for which the GI50 with A549 is 81.5 µM (inactive); in the experiment on CCRF-CEM, 24.5 µM (inactive); in the experiment on COLO 205, 18 µM (inactive); in the experiment on EKVX it was 54.6 µM (inactive); in the experiment with HCC 2998, 16.2 µM (inactive); in the experiment with MCF7 it was 53.7 µM (inactive). Also, the GI50 with MDA-MB-231 is 43 µM (inactive); in the experiment with MDA-MB-435, 24.1 µM (inactive); in the experiment on MDA-N, 34.1 µM (inactive); with NCI-H522 it was 22.4 µM (inactive); in the experiment with NCI/ADR-RES it was 69.5 µM (inactive); with OVCAR-4, 31.5 µM (inactive). Also, the GI50 in the experiment with OVCAR-5 is 57.9 µM (inactive); in the experiment on OVCAR-8 it was 36.6 µM (inactive); in the experiment on PC-3, 30.4 µM (inactive); with SF-268, 27 µM (inactive); in the experiment on SK-MEL-5, 21 µM (inactive); in the experiment with SR, 23.7 µM (inactive).

In the case of `COc1cccc(C2c3cc4c(cc3OC(C)(O)C2C)OCO4)c1O` (stereo unspecified), the GI50 was 4.57 µM (inactive) with A549; 4.45 µM (inactive) in the experiment with CCRF-CEM; 2.19 µM (inactive) in the experiment with COLO 205; 13.6 µM (inactive) in the experiment on EKVX; 4.2 µM (inactive) with HCC 2998; 4.25 µM (inactive) in the experiment on MCF7. For the same molecule, the GI50 with MDA-MB-231 is 0.897 µM (active); in the experiment with MDA-MB-435, 1.42 µM (inactive); in the experiment on MDA-N, 1.48 µM (inactive); in the experiment with NCI-H522, 2.27 µM (inactive); with NCI/ADR-RES it was 2.13 µM (inactive); in the experiment with OVCAR-4, 11.6 µM (inactive). In addition, the GI50 with OVCAR-5 is 8.09 µM (inactive); with OVCAR-8, 4.94 µM (inactive); in the experiment on PC-3 it was 3.37 µM (inactive); in the experiment with SF-268, 8.79 µM (inactive); with SK-MEL-5 it was 2.84 µM (inactive); in the experiment on SR, 2.18 µM (inactive).

With `Cc1nc2sc3cccc(Cl)c3n2c(=O)c1/N=N/c1ccc(Cl)cc1`, the GI50 was 77.8 µM (inactive) in the experiment with A549; > 100 µM (inactive) in the experiment on CAKI-1; > 100 µM (inactive) with CCRF-CEM; 94.6 µM (inactive) with COLO 205; 38.5 µM (inactive) in the experiment with EKVX; 87.5 µM (inactive) in the experiment on MCF7. The GI50 is 71 µM (inactive) with MDA-MB-231; > 100 µM (inactive) in the experiment with MDA-MB-435; > 100 µM (inactive) in the experiment with MDA-N; 45.7 µM (inactive) in the experiment on NCI-H522; > 100 µM (inactive) in the experiment with NCI/ADR-RES; > 100 µM (inactive) with OVCAR-4. Further, the GI50 in the experiment on OVCAR-5 is > 100 µM (inactive); in the experiment on OVCAR-8, > 100 µM (inactive); in the experiment with PC-3 it was 51.2 µM (inactive); with SF-268, 58.9 µM (inactive); in the experiment with SK-MEL-5, 68.2 µM (inactive); in the experiment on SR, > 100 µM (inactive).
